# pIC50: −log10 of the molar value. Calls of active or inactive are those of the source. The rule behind the calls is not given here.
# System: MV4-11
# Test: Antiproliferative activity against human MV4-11 cells harboring FLT3 ITD mutant after 72 hrs by MTS assay
# Assay type: functional, cell-based
# Settings: MV4-11, 72 h
row,Compound,pIC50
1,Cc1[nH]c(/C=C2\C(=O)Nc3ccc(F)cc32)c(C)c1NC(=O)CNC1CCCCC1,< 6.70
2,Cc1[nH]c(/C=C2\C(=O)Nc3ccc(F)cc32)c(C)c1NC(=O)CCN1CCOCC1,7.22
3,CCCCNCC(=O)Nc1c(C)[nH]c(/C=C2\C(=O)Nc3ccc(F)cc32)c1C,< 6.70
4,Cc1[nH]c(/C=C2\C(=O)Nc3ccc(F)cc32)c(C)c1NC(=O)CCNC1CCCCC1,6.92
5,CCCNCC(=O)Nc1c(C)[nH]c(/C=C2\C(=O)Nc3ccc(F)cc32)c1C,7.17
6,Cc1[nH]c(/C=C2\C(=O)Nc3ccc(F)cc32)c(C)c1NC(=O)CNC(C)(C)C,6.80
7,Cc1[nH]c(/C=C2\C(=O)Nc3ccc(F)cc32)c(C)c1NC(=O)CNC1CCCC1,7.05
8,CCN(CC)CCNC(=O)c1c(C)[nH]c(/C=C2\C(=O)Nc3ccc(F)cc32)c1C [SUNITINIB],7.41
9,Cc1[nH]c(/C=C2\C(=O)Nc3ccc(F)cc32)c(C)c1NC(=O)CN(C)C,7.32
10,CCN(CC)CC(=O)Nc1c(C)[nH]c(/C=C2\C(=O)Nc3ccc(F)cc32)c1C,< 6.70
11,Cc1[nH]c(/C=C2\C(=O)Nc3ccc(F)cc32)c(C)c1NC(=O)CN1CCCC1,7.13
12,CCCN(CCC)CCC(=O)Nc1c(C)[nH]c(/C=C2\C(=O)Nc3ccc(F)cc32)c1C,6.85
13,Cc1[nH]c(/C=C2\C(=O)Nc3ccc(F)cc32)c(C)c1NC(=O)CN1CCOCC1,7.18
14,Cc1[nH]c(/C=C2\C(=O)Nc3ccc(F)cc32)c(C)c1NC(=O)CCNC1CCCC1,7.26
15,CCCN(CCC)CC(=O)Nc1c(C)[nH]c(/C=C2\C(=O)Nc3ccc(F)cc32)c1C,< 6.70
16,CCCCNCCC(=O)Nc1c(C)[nH]c(/C=C2\C(=O)Nc3ccc(F)cc32)c1C,7.13
17,Cc1[nH]c(/C=C2\C(=O)Nc3ccc(F)cc32)c(C)c1NC(=O)CN1CCCCC1,< 6.70

# Continued, values first:
row,pIC50,Compound
1,7.41,Cc1[nH]c(/C=C2\C(=O)Nc3ccc(F)cc32)c(C)c1NC(=O)CN1CCN(C)CC1
2,7.34,Cc1[nH]c(/C=C2\C(=O)Nc3ccc(F)cc32)c(C)c1NC(=O)CCN1CCN(C)CC1
3,7.83,Cc1[nH]c(/C=C2\C(=O)Nc3ccc(F)cc32)c(C)c1NC(=O)C1CCNCC1
4,7.38,Cc1[nH]c(/C=C2\C(=O)Nc3ccc(F)cc32)c(C)c1NC(=O)[C@@H]1CCCN1
5,7.40,CCCNCCC(=O)Nc1c(C)[nH]c(/C=C2\C(=O)Nc3ccc(F)cc32)c1C
6,7.41,Cc1[nH]c(/C=C2\C(=O)Nc3ccc(F)cc32)c(C)c1NC(=O)CCN1CCNCC1
7,7.47,Cc1[nH]c(/C=C2\C(=O)Nc3ccc(F)cc32)c(C)c1NC(=O)CCN1CCCCC1
8,7.36,CCNCC(=O)Nc1c(C)[nH]c(/C=C2\C(=O)Nc3ccc(F)cc32)c1C
9,7.57,Cc1[nH]c(/C=C2\C(=O)Nc3ccc(F)cc32)c(C)c1NC(=O)CCN(C)C
10,7.62,Cc1[nH]c(/C=C2\C(=O)Nc3ccc(F)cc32)c(C)c1NC(=O)C1CCCNC1 (stereo not drawn)
11,7.77,Cc1[nH]c(/C=C2\C(=O)Nc3ccc(F)cc32)c(C)c1NC(=O)CN1CCNCC1
12,7.59,CCNCCC(=O)Nc1c(C)[nH]c(/C=C2\C(=O)Nc3ccc(F)cc32)c1C
13,7.52,Cc1[nH]c(/C=C2\C(=O)Nc3ccc(F)cc32)c(C)c1NC(=O)CCNC(C)(C)C
14,7.44,CCN(CC)CCC(=O)Nc1c(C)[nH]c(/C=C2\C(=O)Nc3ccc(F)cc32)c1C
15,7.45,Cc1[nH]c(/C=C2\C(=O)Nc3ccc(F)cc32)c(C)c1NC(=O)C1CCCCN1 (stereo not drawn)
16,7.70,Cc1[nH]c(/C=C2\C(=O)Nc3ccc(F)cc32)c(C)c1NC(=O)CCN1CCCC1

# System: not listed separately
# Test: Inhibition of human FLT3 ITD mutant
# Settings: not given
row,Compound,pIC50
1,CCN(CC)CCNC(=O)c1c(C)[nH]c(/C=C2\C(=O)Nc3ccc(F)cc32)c1C [SUNITINIB],8.85

# System: MV4-11
# Test: Antitumor activity against human MV4-11 cells xenografted in Harlan nude mouse assessed as tumor growth inhibition at 10 mg/kg, ig qd for 20 days relative to control
# Assay type: functional
# Settings: MV4-11, po, 480 h, read-out: TGI
row,Compound,inhibition in vivo at 10 mg/kg [%]
1,CCN(CC)CCNC(=O)c1c(C)[nH]c(/C=C2\C(=O)Nc3ccc(F)cc32)c1C [SUNITINIB],81

# System: MV4-11
# Test: Antitumor activity against human MV4-11 cells xenografted in Harlan nude mouse assessed as tumor growth inhibition administered ig qd for 20 days
# Assay type: functional
# Settings: MV4-11, po, 480 h, read-out: MED
row,Compound,minimal effective dose [mg/kg/day]
1,CCN(CC)CCNC(=O)c1c(C)[nH]c(/C=C2\C(=O)Nc3ccc(F)cc32)c1C [SUNITINIB],10

# System: not listed separately
# Test: Toxicity in Harlan nude mouse xenografted with human MV4-11 cells administered ig qd for 20 days
# Settings: in vivo, po
row,Compound,MTD at 480 h [mg/kg/day]
1,CCN(CC)CCNC(=O)c1c(C)[nH]c(/C=C2\C(=O)Nc3ccc(F)cc32)c1C [SUNITINIB],80

# System: MV4-11
# Test: Antitumor activity against human MV4-11 cells xenografted in Harlan nude mouse assessed as tumor growth inhibition administered orally measured after 1 week
# Assay type: functional, cell-based
# Settings: not given
row,Compound,TGI
1,Cc1[nH]c(/C=C2\C(=O)Nc3ccc(F)cc32)c(C)c1NC(=O)C1CCNCC1,inactive

# Reference: ChEMBL document CHEMBL4007390, “Design, synthesis and biological evaluation of indolin-2-one-based derivatives as potent, selective and efficacious inhibitors of FMS-like tyrosine kinase3 (FLT3)” (Eur J Med Chem, 2017)
